Measurements: US6180622A, “Imidazo[5,1-b]thiazol-3-yl carbapenem antimicrobials” (priority 1996, dated 2001)
In brackets after ≈: the same amount, converted by molar mass.

Assays:
Ps. aeruginosa GN10362 = assay: Antimicrobial activity (minimum inhibitory concentration); type: cell-based; settings: Pseudomonas aeruginosa; Ps. aeruginosa GN10362; read-out: MIC
Method: (§1) For representative compounds among the novel carbapenem derivatives of the present invention, the minimum inhibitory concentration (MIC, μg/ml) against various pathogenic bacteria was measured in accordance with a method described in CHEMOTHERAPY, Vol. 16, No. 1, 99 (1968).

S. marcescens No. 1 = assay: as above; type: cell-based; settings: Serratia marcescens
Method: as §1

C. freundii GN346 = assay: as above; type: cell-based; settings: Citrobacter freundii
Method: as §1

K. pneumoniae PCI602 = assay: as above; type: cell-based; settings: Klebsiella pneumoniae
Method: as §1

P. vulgaris GN76 = assay: as above; type: cell-based; settings: Proteus vulgaris; P. vulgaris GN76; read-out: MIC
Method: as §1

E. coli GN206 = assay: as above; type: cell-based; settings: Escherichia coli
Method: as §1

E. cloacae G-0008 = assay: as above; type: cell-based; settings: Enterobacter cloacae, G0008
Method: as §1

S. aureus 209P JC-1 = assay: as above; type: cell-based; settings: Staphylococcus aureus
Method: as §1

M. morganii 1510 = assay: as above; type: cell-based; settings: Morganella morganii
Method: as §1

E. coli NIHJ JC-2 = assay: as above; type: cell-based; settings: Escherichia coli, NIHJJC2
Method: as §1

S. aureus M126 = assay: as above; type: cell-based; settings: Staphylococcus aureus; S. aureus M126, highly meticillin-resistant strain
Method: as §1

[1] = Stability against DHP-I (mouse); type: in vitro ADME; settings: kidney dhp-i, 100 μg (potency)/ml, 37° C., pH 7.0, read-out: residue (%) of the carbapenem derivative
Method: (§2) The stability of representative compounds, among the novel carbapenem derivatives of the present invention, against kidney dehydropeptidase-I (DHP-I) of a pig and a mouse was measured, and the residue (%) of the carbapenem derivatives three hr after the initiation of the test is summarized in Table 6.
(§3) 1.5 g of a kidney acetone powder (manufactured by Sigma) Porcine Type II (Lot. 33H7225) was suspended in 100 ml of 50 mM Tris-HCl buffer (pH 7.0) containing 20% butanol, and the suspension was stirred at 5° C. for 48 hr. The suspension was then dialyzed against 50 mM Tris-HCl buffer (pH 7.0) (a cellulose tube 30/32 Viskase Sales Corp.) until the odor of butanol disappeared, thereby removing butanol. The dialyzate is centrifuged at 10000×g (KUBOTA 6800) for 20 min, and the supernatant was obtained as a partially purified DHP-I. This partially purified DHP-I was subdivided and stored at -80° C. The above procedure was repeated, except that 1.5 g of Mouse (Lot. 23F8105) was used. Thus, a partially purified DHP-I was prepared and stored.
(§4) For the carbapenem as the substrate agent, a solution (2000 μg (potency)/ml) was prepared using sterilized, purified water. For the sample solution, the carbapenem (2000 μg (potency)/ml) solution was added to the partially purified DHP-I of each animal to a final concentration of 100 μg (potency)/ml). For the blank, 50 mM Tris-HCl buffer (pH 7.0) was used instead of the partially purified DHP-I of each animal. The reaction was allowed to proceed at 37° C. for 3 hr, and a given amount of the reaction mixture was sampled. Methanol in the same amount as the sampled reaction mixture was added under ice cooling to terminate the reaction. The reaction mixture was filtered through a filter (Sanprep LCR 13-LH manufactured by MILLIPORE) and subjected to HPLC (column: CAPCELL PACK C18SG120, manufactured by Shiseido Co., Ltd.; detection: UV; mobile layer: acetonitrile/10 mM aqueous acetic acid solution) to determined the residue (%).
(§5) Residue (%)=(Sample Peak Area/Blank Peak Area)×100

[2] = Stability against DHP-I (pig); type: in vitro ADME; settings: kidney dhp-i, 100 μg (potency)/ml, 37° C., pH 7.0, read-out: residue (%) of the carbapenem derivative
Method: as §2, §3, §4, §5

Which results are given for `C[C@@H](O)[C@H]1C(=O)N2C(C(=O)O)=C(S[C@@H]3CN[C@H](/C=C\c4csc5cncn45)C3)[C@H](C)[C@H]12` [Ex. 38, (1R,5S,6S)-6-((1R)-1-Hydroxyethyl)-2-[(3S,5S)-5-[2(Z)-(imidazo[5,1-b]thiazol-3-yl)ethenyl]pyrrolidin-3-yl]thio-1-methylcarbapen-2-em-3-carboxylic acid]?
MIC (Ps. aeruginosa GN10362): 6.25 µg/mL (≈ 13.6 µM); MIC (S. marcescens No. 1): 0.2 µg/mL (≈ 0.434 µM); MIC (C. freundii GN346): 0.2 µg/mL (≈ 0.434 µM); MIC (K. pneumoniae PCI602): 0.2 µg/mL (≈ 0.434 µM); MIC (P. vulgaris GN76): 1.56 µg/mL (≈ 3.39 µM); MIC (E. coli GN206): 0.1 µg/mL (≈ 0.217 µM); MIC (E. cloacae G-0008): 0.1 µg/mL (≈ 0.217 µM); MIC (S. aureus 209P JC-1): 0.1 µg/mL (≈ 0.217 µM); MIC (M. morganii 1510): 0.78 µg/mL (≈ 1.69 µM); MIC (E. coli NIHJ JC-2): 0.1 µg/mL (≈ 0.217 µM); MIC (S. aureus M126): 25 µg/mL (≈ 54.3 µM)

With `C[C@@H](O)[C@H]1C(=O)N2C(C(=O)O)=C(S[C@@H]3CN[C@H](C(O)c4cn5c[n+](C)cc5s4)C3)[C@H](C)[C@H]12` (single isomer, unassigned) [Ex. 18] as the compound, how does the MIC (Ps. aeruginosa GN10362) read?
The MIC was 3.13 µg/mL.

And the MIC (S. marcescens No. 1)?
Its MIC is 0.1 µg/mL.

And the MIC (C. freundii GN346)?
The MIC was 0.2 µg/mL.

And the MIC (K. pneumoniae PCI602)?
The MIC was 0.1 µg/mL.

What about the MIC (P. vulgaris GN76) of the same compound?
The MIC was 0.39 µg/mL.

And the MIC (E. coli GN206)?
Its MIC is 0.05 µg/mL.

And the MIC (E. cloacae G-0008)?
Its MIC is 0.05 µg/mL.

And the MIC (S. aureus 209P JC-1)?
Its MIC is < 0.025 µg/mL.

And the MIC (M. morganii 1510)?
Its MIC is 0.2 µg/mL.

And the MIC (E. coli NIHJ JC-2)?
Its MIC is 0.05 µg/mL.

What about the MIC (S. aureus M126) of the same compound?
Its MIC is 12.5 µg/mL.

What does the source list for `C[C@@H](O)[C@H]1C(=O)N2C(C(=O)O)=C(S[C@@H]3CN[C@H](/C=C\c4csc5c[n+](C)cn45)C3)[C@H](C)[C@H]12` [Ex. 39, (1R,5S,6S)-6-((1R)-1-Hydroxyethyl)-1-methyl-2-[(3S,5S)-5-[2(Z)-(6-methylimidazo[5,1-b]thiazolium-3-yl)ethenyl]pyrrolidin-3-yl]thiocarbapen-2-em-3-carboxylic acid chloride]?
MIC (Ps. aeruginosa GN10362): 6.25 µg/mL; MIC (S. marcescens No. 1): 0.05 µg/mL; MIC (C. freundii GN346): 0.1 µg/mL; MIC (K. pneumoniae PCI602): 0.05 µg/mL; MIC (P. vulgaris GN76): 0.39 µg/mL; MIC (E. coli GN206): < 0.025 µg/mL; MIC (E. cloacae G-0008): 0.05 µg/mL; MIC (S. aureus 209P JC-1): < 0.025 µg/mL; MIC (M. morganii 1510): 0.2 µg/mL; MIC (E. coli NIHJ JC-2): < 0.025 µg/mL; MIC (S. aureus M126): 6.25 µg/mL

What does the source list for `Cc1n2cc(C[C@@H]3C[C@H](SC4=C(C(=O)O)N5C(=O)[C@H]([C@@H](C)O)[C@H]5[C@H]4C)CN3)sc2c[n+]1CCC(N)=O` [Ex. 67, (1R,5S,6S)-2-[(3S,5S)-5-(6-(2-Carbamoylethyl)-5-methylimidazo[5,1-b]thiazolium-2-yl)methylpyrrolidin-3-yl]thio-6-((1R)-1-hydroxyethyl)-1-methylcarbapen-2-em-3-carboxylic acid chloride]?
MIC (Ps. aeruginosa GN10362): 0.78 µg/mL; MIC (S. marcescens No. 1): 0.39 µg/mL; MIC (C. freundii GN346): 0.05 µg/mL; MIC (K. pneumoniae PCI602): 0.1 µg/mL; MIC (P. vulgaris GN76): 0.78 µg/mL; MIC (E. coli GN206): 0.1 µg/mL; MIC (E. cloacae G-0008): 0.05 µg/mL; MIC (S. aureus 209P JC-1): < 0.025 µg/mL; MIC (M. morganii 1510): 0.39 µg/mL; MIC (E. coli NIHJ JC-2): 0.05 µg/mL; MIC (S. aureus M126): 12.5 µg/mL

With `C[C@@H](O)[C@H]1C(=O)N2C(C(=O)O)=C(S[C@@H]3CN[C@H](/C=C/c4cn5c[n+](CC(N)=O)cc5s4)C3)[C@H](C)[C@H]12` [Ex. 53A] as the compound, how does the MIC (Ps. aeruginosa GN10362) read?
The MIC was 0.78 µg/mL.

What about the MIC (S. marcescens No. 1) of the same compound?
Its MIC is 0.1 µg/mL.

What about the MIC (C. freundii GN346) of the same compound?
The MIC was 0.1 µg/mL.

What about the MIC (K. pneumoniae PCI602) of the same compound?
Its MIC is 0.1 µg/mL.

What about the MIC (P. vulgaris GN76) of the same compound?
Its MIC is 0.78 µg/mL.

And the MIC (E. coli GN206)?
The MIC was 0.1 µg/mL.

And the MIC (E. cloacae G-0008)?
The MIC was 0.1 µg/mL.

And the MIC (S. aureus 209P JC-1)?
Its MIC is 0.05 µg/mL.

What about the MIC (M. morganii 1510) of the same compound?
The MIC was 0.39 µg/mL.

And the MIC (E. coli NIHJ JC-2)?
The MIC was 0.05 µg/mL.

And the MIC (S. aureus M126)?
The MIC was 12.5 µg/mL.

With `C[C@@H](O)[C@H]1C(=O)N2C(C(=O)O)=C(S[C@@H]3CN[C@H](Cc4csc5cncn45)C3)[C@H](C)[C@H]12` [Ex. 20, (1R,5S,6S)-6-((1R)-1-Hydroxyethyl)-2-[(3S,5R)-5-(imidazo[5,1-b]thiazol-3-yl)methylpyrrolidin-3-yl]thio-1-methylcarbapen-2-em-3-carboxylic acid] as the compound, how does the remaining at 3 h [1] read?
The remaining at 3 h was 97%.

And the remaining at 3 h [2]?
The remaining at 3 h was 100%.
